This is an account of results in ChEMBL document CHEMBL1141384, “Discovery of a potent, selective, and orally active human epidermal growth factor receptor-2 sheddase inhibitor for the treatment of cancer” (J Med Chem, 2007).

Structures are written as SMILES. pIC50: −log10 of the molar value. A value given as a limit tells only on which side of the number the result lay.

Chain of Matrix metalloproteinase-9 (P14780 whole entry): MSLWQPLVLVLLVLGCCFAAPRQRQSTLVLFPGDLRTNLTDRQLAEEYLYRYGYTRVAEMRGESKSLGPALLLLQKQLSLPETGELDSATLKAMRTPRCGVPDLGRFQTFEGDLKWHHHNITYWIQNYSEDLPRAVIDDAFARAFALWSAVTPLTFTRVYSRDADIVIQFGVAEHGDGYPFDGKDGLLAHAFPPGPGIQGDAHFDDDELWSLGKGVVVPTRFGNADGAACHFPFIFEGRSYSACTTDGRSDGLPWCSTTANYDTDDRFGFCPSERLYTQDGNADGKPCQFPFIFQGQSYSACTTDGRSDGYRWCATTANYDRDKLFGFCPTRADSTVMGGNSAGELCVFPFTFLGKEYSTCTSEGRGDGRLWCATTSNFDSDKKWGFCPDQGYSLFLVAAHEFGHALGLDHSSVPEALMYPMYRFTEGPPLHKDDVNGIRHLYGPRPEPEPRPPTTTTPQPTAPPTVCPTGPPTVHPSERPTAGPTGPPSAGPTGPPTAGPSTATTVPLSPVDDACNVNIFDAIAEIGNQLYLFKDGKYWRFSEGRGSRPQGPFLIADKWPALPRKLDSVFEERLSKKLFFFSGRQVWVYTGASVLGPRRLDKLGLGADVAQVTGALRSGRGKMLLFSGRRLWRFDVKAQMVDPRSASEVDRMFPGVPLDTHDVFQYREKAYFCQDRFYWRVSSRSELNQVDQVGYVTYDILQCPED

The target in the first assay is Stromelysin-1 (Homo sapiens, UniProt P08254). Nature of the assay: Inhibition of MMP3.
Chain of Stromelysin-1 (P08254 whole entry): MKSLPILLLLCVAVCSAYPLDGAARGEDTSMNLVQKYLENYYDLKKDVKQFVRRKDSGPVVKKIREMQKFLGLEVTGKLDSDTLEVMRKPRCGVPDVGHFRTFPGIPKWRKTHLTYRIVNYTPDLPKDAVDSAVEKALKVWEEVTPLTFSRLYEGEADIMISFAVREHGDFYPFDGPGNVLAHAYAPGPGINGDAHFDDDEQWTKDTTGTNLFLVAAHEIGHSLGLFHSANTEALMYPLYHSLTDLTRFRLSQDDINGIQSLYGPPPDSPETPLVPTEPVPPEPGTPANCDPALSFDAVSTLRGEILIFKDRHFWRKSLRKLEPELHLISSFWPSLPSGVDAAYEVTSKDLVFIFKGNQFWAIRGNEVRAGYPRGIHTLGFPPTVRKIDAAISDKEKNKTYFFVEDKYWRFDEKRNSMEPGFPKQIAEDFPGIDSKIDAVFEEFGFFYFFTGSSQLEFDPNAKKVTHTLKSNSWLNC
For orientation: pIC50 means the negative decadic logarithm of the IC50, by convention in mol/L. The compound `CN1CC2(CC2)C[C@H](C(=O)NO)[C@H]1C(=O)N1CC=C(c2ccccc2)CC1` had a pIC50 of less than 6.00.
Still for that read-out and setting: the value for `O=C(NO)[C@H]1CC2(CC2)CN[C@@H]1C(=O)N1CC[C@H](c2ccccc2)C1` was less than 5.52; that for `CN1CC2(CC2)C[C@H](C(=O)NO)[C@H]1C(=O)N1CCN(c2ccccc2)CC1` was less than 5.30.
Same read-out and setting: the value for `Cc1cc([N+](=O)[O-])ccc1N1CCN(C(=O)[C@H]2NCC3(CC3)C[C@@H]2C(=O)NO)CC1` was less than 6.00; that for `CC1=C(c2ccccc2)CCN(C(=O)[C@H]2NCC3(CC3)C[C@@H]2C(=O)NO)C1` was less than 5.30; that for `O=C(NO)[C@H]1CC2(CC2)CN[C@@H]1C(=O)N1CC=C(c2ccccc2)C1` was 6.35.
The compound `Cc1cc([N+](=O)[O-])ccc1C1=CCN(C(=O)[C@H]2NCC3(CC3)C[C@@H]2C(=O)NO)CC1` gave a pIC50 of less than 5.30.

The target of a further assay is 72 kDa type IV collagenase (Homo sapiens, UniProt P08253). Nature of the assay: Inhibition of MMP2.
Chain of 72 kDa type IV collagenase (P08253 whole entry): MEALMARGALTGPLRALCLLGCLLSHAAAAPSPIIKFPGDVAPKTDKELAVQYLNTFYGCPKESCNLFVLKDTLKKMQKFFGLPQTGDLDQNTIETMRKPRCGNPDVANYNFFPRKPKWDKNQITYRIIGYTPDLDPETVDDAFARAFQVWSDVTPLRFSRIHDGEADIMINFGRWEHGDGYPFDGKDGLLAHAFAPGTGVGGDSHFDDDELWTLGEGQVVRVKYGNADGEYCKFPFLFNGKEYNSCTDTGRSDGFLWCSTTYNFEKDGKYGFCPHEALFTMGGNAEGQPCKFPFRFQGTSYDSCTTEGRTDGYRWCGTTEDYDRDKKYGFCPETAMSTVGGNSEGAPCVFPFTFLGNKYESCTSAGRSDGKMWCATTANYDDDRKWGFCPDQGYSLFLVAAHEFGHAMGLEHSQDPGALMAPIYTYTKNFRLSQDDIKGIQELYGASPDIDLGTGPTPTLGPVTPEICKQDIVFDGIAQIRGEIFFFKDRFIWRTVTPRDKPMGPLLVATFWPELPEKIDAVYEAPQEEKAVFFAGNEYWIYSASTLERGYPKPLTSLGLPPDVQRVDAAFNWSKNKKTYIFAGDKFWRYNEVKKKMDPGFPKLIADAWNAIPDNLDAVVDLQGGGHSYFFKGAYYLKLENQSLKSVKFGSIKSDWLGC
`CN1CC2(CC2)C[C@H](C(=O)NO)[C@H]1C(=O)N1CC=C(c2ccccc2)CC1`: the negative-log IC50 (pIC50) was 7.19.
As to `O=C(NO)[C@H]1CC2(CC2)CN[C@@H]1C(=O)N1CC[C@H](c2ccccc2)C1`, the pIC50 was 6.02.
Still for that read-out and setting: to `CN1CC2(CC2)C[C@H](C(=O)NO)[C@H]1C(=O)N1CCN(c2ccccc2)CC1` belongs 6.82; to `Cc1cc([N+](=O)[O-])ccc1N1CCN(C(=O)[C@H]2NCC3(CC3)C[C@@H]2C(=O)NO)CC1`, less than 6.00.
Still for that read-out and setting: the value for `CC1=C(c2ccccc2)CCN(C(=O)[C@H]2NCC3(CC3)C[C@@H]2C(=O)NO)C1` was less than 5.30.
The same measure, in the same setting: the value for `O=C(NO)[C@H]1CC2(CC2)CN[C@@H]1C(=O)N1CC=C(c2ccccc2)C1` was 7.89; that for `Cc1cc([N+](=O)[O-])ccc1C1=CCN(C(=O)[C@H]2NCC3(CC3)C[C@@H]2C(=O)NO)CC1` was less than 5.30.

In the next assay the target is T1, Interstitial collagenase (Homo sapiens, UniProt P03956).
T1 sequence (P03956 whole entry): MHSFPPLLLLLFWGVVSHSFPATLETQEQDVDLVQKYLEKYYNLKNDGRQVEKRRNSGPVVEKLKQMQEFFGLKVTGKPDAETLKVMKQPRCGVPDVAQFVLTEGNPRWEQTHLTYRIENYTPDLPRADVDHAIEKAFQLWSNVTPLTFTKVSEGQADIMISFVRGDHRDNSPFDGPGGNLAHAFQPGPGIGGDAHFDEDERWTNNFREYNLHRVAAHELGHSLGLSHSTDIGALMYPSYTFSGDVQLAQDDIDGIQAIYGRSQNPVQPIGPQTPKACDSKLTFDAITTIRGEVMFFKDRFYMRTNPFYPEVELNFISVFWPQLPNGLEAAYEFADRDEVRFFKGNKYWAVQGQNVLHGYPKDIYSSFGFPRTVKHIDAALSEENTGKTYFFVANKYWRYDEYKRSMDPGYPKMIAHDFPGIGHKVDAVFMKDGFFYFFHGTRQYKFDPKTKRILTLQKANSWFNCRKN
Nature of the assay: Inhibition of MMP1.
Consider `CN1CC2(CC2)C[C@H](C(=O)NO)[C@H]1C(=O)N1CC=C(c2ccccc2)CC1`, for which the pIC50 was less than 5.30.
Turning to `O=C(NO)[C@H]1CC2(CC2)CN[C@@H]1C(=O)N1CC[C@H](c2ccccc2)C1`, the pIC50 is less than 5.30.
Same read-out and setting: the value for `CN1CC2(CC2)C[C@H](C(=O)NO)[C@H]1C(=O)N1CCN(c2ccccc2)CC1` was less than 5.30; that for `Cc1cc([N+](=O)[O-])ccc1N1CCN(C(=O)[C@H]2NCC3(CC3)C[C@@H]2C(=O)NO)CC1` was less than 5.30.
Still for that read-out and setting: the value for `CC1=C(c2ccccc2)CCN(C(=O)[C@H]2NCC3(CC3)C[C@@H]2C(=O)NO)C1` was less than 5.30.
On the same count and under the same terms, to `O=C(NO)[C@H]1CC2(CC2)CN[C@@H]1C(=O)N1CC=C(c2ccccc2)C1` belongs 5.60; to `Cc1cc([N+](=O)[O-])ccc1C1=CCN(C(=O)[C@H]2NCC3(CC3)C[C@@H]2C(=O)NO)CC1`, less than 5.30.

The next assay has as its target Matrix metalloproteinase-9 (Homo sapiens, UniProt P14780). Nature of the assay: Inhibition of MMP9.
The compound `CN1CC2(CC2)C[C@H](C(=O)NO)[C@H]1C(=O)N1CC=C(c2ccccc2)CC1` showed a pIC50 of less than 5.30.
Same read-out and setting: to `O=C(NO)[C@H]1CC2(CC2)CN[C@@H]1C(=O)N1CC[C@H](c2ccccc2)C1` belongs less than 5.52.
Same read-out and setting: the value for `CN1CC2(CC2)C[C@H](C(=O)NO)[C@H]1C(=O)N1CCN(c2ccccc2)CC1` was less than 5.30; that for `Cc1cc([N+](=O)[O-])ccc1N1CCN(C(=O)[C@H]2NCC3(CC3)C[C@@H]2C(=O)NO)CC1` was less than 5.30; that for `CC1=C(c2ccccc2)CCN(C(=O)[C@H]2NCC3(CC3)C[C@@H]2C(=O)NO)C1` was less than 5.30.
Same read-out and setting: to `O=C(NO)[C@H]1CC2(CC2)CN[C@@H]1C(=O)N1CC=C(c2ccccc2)C1` belongs 7.11; to `Cc1cc([N+](=O)[O-])ccc1C1=CCN(C(=O)[C@H]2NCC3(CC3)C[C@@H]2C(=O)NO)CC1`, less than 5.30.

A further assay has as its target T2, Disintegrin and metalloproteinase domain-containing protein 10 (Homo sapiens, UniProt O14672).
T2 sequence (O14672 whole entry): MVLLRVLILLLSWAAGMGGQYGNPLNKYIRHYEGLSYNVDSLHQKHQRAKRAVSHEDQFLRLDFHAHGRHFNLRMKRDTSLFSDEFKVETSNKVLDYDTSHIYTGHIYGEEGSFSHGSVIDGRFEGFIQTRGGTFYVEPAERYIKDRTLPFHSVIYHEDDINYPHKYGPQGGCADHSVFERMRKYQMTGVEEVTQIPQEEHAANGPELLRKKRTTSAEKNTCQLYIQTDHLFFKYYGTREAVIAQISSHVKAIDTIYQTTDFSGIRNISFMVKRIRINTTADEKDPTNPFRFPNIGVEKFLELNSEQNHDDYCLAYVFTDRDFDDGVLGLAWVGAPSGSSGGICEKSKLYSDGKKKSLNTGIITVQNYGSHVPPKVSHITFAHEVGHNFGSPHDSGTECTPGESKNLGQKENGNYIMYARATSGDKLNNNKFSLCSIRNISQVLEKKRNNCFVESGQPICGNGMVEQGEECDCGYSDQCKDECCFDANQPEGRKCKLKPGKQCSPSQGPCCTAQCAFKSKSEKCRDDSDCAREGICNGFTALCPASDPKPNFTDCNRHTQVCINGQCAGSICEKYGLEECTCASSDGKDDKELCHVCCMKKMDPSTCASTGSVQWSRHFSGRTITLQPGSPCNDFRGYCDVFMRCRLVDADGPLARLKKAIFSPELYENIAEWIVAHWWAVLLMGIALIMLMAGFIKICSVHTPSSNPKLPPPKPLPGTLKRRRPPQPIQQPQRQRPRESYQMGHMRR
Nature of the assay: Inhibition of ADAM10.
Regarding `CN1CC2(CC2)C[C@H](C(=O)NO)[C@H]1C(=O)N1CC=C(c2ccccc2)CC1`, the negative-log IC50 (pIC50) is 7.11.
The same measure, in the same setting: the value for `CN1CC2(CC2)C[C@H](C(=O)NO)[C@H]1C(=O)N1CCN(c2ccccc2)CC1` was 6.51; that for `Cc1cc([N+](=O)[O-])ccc1N1CCN(C(=O)[C@H]2NCC3(CC3)C[C@@H]2C(=O)NO)CC1` was 6.96.
As to `O=C(NO)[C@H]1CCCN[C@@H]1C(=O)N1CC[C@H](c2ccccc2)C1`, the pIC50 was 6.32.
Still for that read-out and setting: the value for `CC1=C(c2ccccc2)CCN(C(=O)[C@H]2NCC3(CC3)C[C@@H]2C(=O)NO)C1` was 6.14.
Consider `O=C(NO)[C@H]1CC2(CC2)CN[C@@H]1C(=O)N1CC=C(c2ccccc2)C1`, for which the negative-log IC50 (pIC50) was 7.64.
In the case of `Cc1cc([N+](=O)[O-])ccc1C1=CCN(C(=O)[C@H]2NCC3(CC3)C[C@@H]2C(=O)NO)CC1`, the negative logarithm of the IC50 (pIC50) is 6.89. Against the preceding compound, the pIC50 is 0.75 log units lower.
